The record followed here is patent US20100324284A1, “PYRROLOPYRIMIDINE DERIVATIVE AS P13K INHIBITOR AND USE THEREOF” (CHUGAI SEIYAKU KABUSHIKI KAISHA, priority 2008, published 2010).

Assay [1] has as its system human colon cancer cell line HCT116. Description: Cell proliferation inhibitory activity, HCT116 (Cell Counting Kit-8). In kind it is cell-based. As to conditions: HCT-116, 96 h, HCT116, 4 days. The protocol:
(§1) The cell proliferation inhibitory activity was measured for compounds of the present invention represented by formula (I). Cancer cell proliferation inhibitory activity was measured using the Cell Counting Kit-8 (Dojindo). 2000 cells each of human colon cancer cell line HCT116 purchased from the American Type Culture Collection (Virginia, USA) were seeded into each well of a 96-well culture plate followed by the addition of a predetermined concentration of the compounds and cultivating in a 5% CO2 environment at 37° C. for 4 days. On the fourth day of cultivating, the Cell Counting Kit-8 solution was added and absorbance (measuring wavelength: 450 nm, reference wavelength: 615 nm) was measured in accordance with the protocol provided with the kit.

Assay [2] concerns the target human PI3K (p110α/p85α) (Homo sapiens, UniProt P42336). The experiment in a line: Measurement of PI3K inhibitory activity (AlphaScreen GST Detection Kit). In kind it is biochemical. The conditions noted are these: 10 μM ATP, 4 μM PI(4,5)P2, read-out: Enzyme inhibitory activity (IC50, μM) PI3K α. How it is done:
The inhibitory activity of compounds of the present invention represented by formula (I) was measured with human PI3K (p110α/p85α) prepared in a baculovirus expression system using the AlphaScreen GST Detection Kit (Perkin Elmer, Inc.). A predetermined concentration of the compound of the present invention dissolved in dimethylsulfoxide (DMSO) and PI3K were mixed in a 384-well assay plate and after allowing to stand for 20 minutes at room temperature, 4 μM PI(4,5)P2 (Echelon Corporation) and 10 μM ATP (5 mM Hepes, pH 7.5, 2.5 mM MgCl2) were added to initiate the reaction. After reacting at 37° C. for 15 minutes, GST-GRP1 expressed and purified from Escherichia coli, Anti-GST Acceptor Beads (Perkin Elmer, Inc.), Streptavidin Donor Beads (Perkin Elmer, Inc.) and biotin-PI (3,4,5)P3 (Echelon Corporation) (10 mM Tris-HCl pH 7.4, 150 mM NaCl, 7.5 mM EDTA, 1 mM DTT, 0.1% Tween 20) were added, and after allowing to stand for 1 hour at room temperature, light at 520 to 620 nm emitted as a result of exciting with light at 680 nm was measured with the EnVision measuring instrument (Perkin Elmer, Inc.).
Test Example 1 described above can be performed according to “Analytical Biochemistry, 2003, 313, 234-245; Alexander Gray et al”.

In assay [3] the test system is human lung cancer cell line NCI-H460. The experiment in a line: Cell proliferation inhibitory activity, NCI-H460 (Cell Counting Kit-8). The class given is cell-based. The conditions noted are these: 96 h, NCI-H460, 4 days, read-out: Cell proliferation inhibitory activity (IC50, μM) Non-small cell cancer (NCIH460). How it is done:
as §1
(§2) Cancer cell proliferation inhibitory activity was also measured for human lung cancer cell line NCI-H460 and human prostate cancer cell line PC3 purchased from the American Type Culture Collection.

Assay [4] relates to human prostate cancer cell line PC3. The experiment in a line: Cell proliferation inhibitory activity, PC3 (Cell Counting Kit-8). In kind it is cell-based. As to conditions: PC-3, 96 h, PC3, 4 days. How it is done:
as §1, §2

Sequence of human PI3K (p110α/p85α) (P42336 whole entry): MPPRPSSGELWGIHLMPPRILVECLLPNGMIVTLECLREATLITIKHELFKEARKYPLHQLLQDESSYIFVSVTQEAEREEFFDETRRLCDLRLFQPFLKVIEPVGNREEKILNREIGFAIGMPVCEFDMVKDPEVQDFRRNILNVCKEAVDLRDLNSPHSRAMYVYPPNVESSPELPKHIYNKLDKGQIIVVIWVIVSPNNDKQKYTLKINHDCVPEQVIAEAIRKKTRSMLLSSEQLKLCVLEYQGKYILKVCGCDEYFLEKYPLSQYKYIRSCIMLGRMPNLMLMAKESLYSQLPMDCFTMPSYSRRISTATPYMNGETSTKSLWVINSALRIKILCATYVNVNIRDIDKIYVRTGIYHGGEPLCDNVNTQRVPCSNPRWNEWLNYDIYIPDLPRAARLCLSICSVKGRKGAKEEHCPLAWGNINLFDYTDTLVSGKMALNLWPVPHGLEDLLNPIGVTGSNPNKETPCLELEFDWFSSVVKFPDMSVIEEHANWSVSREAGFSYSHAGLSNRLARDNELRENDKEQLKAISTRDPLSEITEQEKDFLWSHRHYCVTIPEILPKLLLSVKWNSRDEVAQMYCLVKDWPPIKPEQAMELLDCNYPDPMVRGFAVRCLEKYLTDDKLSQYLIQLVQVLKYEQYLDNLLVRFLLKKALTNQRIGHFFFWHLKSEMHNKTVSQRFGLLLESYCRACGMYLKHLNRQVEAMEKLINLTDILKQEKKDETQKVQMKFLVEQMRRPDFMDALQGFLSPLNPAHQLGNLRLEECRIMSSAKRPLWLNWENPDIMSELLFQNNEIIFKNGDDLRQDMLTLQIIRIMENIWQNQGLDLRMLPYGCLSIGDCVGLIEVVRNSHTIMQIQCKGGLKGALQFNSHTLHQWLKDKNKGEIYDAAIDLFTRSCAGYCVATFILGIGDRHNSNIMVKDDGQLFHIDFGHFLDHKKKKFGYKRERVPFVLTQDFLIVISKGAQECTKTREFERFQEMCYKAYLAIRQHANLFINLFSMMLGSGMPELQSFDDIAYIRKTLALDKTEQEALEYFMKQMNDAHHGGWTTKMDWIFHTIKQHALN
Sequence of human PI3K (p110α/p85α) (P27986 whole entry partner): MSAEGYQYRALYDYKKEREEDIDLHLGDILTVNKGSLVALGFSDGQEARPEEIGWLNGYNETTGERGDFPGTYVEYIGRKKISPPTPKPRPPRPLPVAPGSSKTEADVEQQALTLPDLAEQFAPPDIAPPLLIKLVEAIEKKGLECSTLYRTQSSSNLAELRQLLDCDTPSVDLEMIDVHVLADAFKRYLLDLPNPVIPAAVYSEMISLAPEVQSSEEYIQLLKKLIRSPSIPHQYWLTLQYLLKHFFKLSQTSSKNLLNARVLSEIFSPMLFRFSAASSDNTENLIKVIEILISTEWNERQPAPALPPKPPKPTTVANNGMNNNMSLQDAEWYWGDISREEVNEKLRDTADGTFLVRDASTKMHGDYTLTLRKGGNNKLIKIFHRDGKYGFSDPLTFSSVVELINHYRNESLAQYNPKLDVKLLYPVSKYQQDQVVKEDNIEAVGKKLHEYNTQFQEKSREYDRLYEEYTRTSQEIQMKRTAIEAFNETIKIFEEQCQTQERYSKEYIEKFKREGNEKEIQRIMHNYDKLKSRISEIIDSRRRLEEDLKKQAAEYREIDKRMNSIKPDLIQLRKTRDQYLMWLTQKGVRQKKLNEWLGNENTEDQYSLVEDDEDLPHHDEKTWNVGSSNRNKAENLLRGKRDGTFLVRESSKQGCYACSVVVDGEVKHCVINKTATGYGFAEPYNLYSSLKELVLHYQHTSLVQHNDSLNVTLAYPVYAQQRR

Regarding `Cc1ccc(C(=O)N2CCOCC2)cc1-n1ccc2c(-c3cnc(N)nc3)nc(N3CCOCC3)nc21` [Compound 2-1, {3-[4-(2-amino-pyrimidin-5-yl)-2-morpholin-4-yl-pyrrolo[2,3-d]pyrimidin-7-yl]-4-methyl-phenyl}-morpholin-4-yl-methanone], the IC50 in assay [1] was found to be 1.45 µM; in assay [2] it was 0.093 µM; in assay [3] it was 1.25 µM; in assay [4], 3.18 µM.
As to `CCN1CCN(c2cc(-n3ccc4c(-c5cnc(N)nc5)nc(N5CCOCC5)nc43)ccn2)CC1` [Compound 1-1, 5-{7-[2-(4-Ethyl-piperazin-1-yl)-pyridin-4-yl]-2-morpholin-4-yl-7H-pyrrolo[2,3-d]pyrimidin-4-yl}-pyrimidin-2-ylamine], the IC50 was determined as 0.12 µM in assay [1], 0.007 µM in assay [2], 0.071 µM in assay [3] and 0.18 µM in assay [4].
The corresponding values for `Nc1ncc(-c2nc(N3CCOCC3)nc3c2ccn3-c2ccc(CN3CCS(=O)(=O)CC3)cc2)cn1` [Compound 3-1, 5-{7-[4-(1,1-dioxo-1λ^6-thiomorpholin-4-ylmethyl)-phenyl]-2-morpholin-4-yl-7H-pyrrolo[2,3-d]pyrimidin-4-yl}-pyrimidin-2-ylamine] are 0.57 µM, 0.093 µM, 0.17 µM and 0.43 µM.
With `CS(=O)(=O)n1ccc2c(-c3cnc(N)nc3)nc(N3CCOCC3)nc21` [Compound 4-1, 5-(7-methanesulfonyl-2-morpholin-4-yl-7H-pyrrolo[2,3-d]pyrimidin-4-yl)-pyrimidin-2-ylamine], the IC50 in assay [1] turned out to be 0.41 µM; in assay [2] it was 0.016 µM; in assay [3] it was 0.29 µM; in assay [4], 1.14 µM.
